Reference: article PMC11634579, “Network pharmacology, experimental validation and pharmacokinetics integrated strategy to reveal pharmacological mechanism of goutengsan on methamphetamine dependence” (Frontiers in Pharmacology, 2024)
“Also recorded” adds a separate entry of the source. Counter-ions that a name gives are not always drawn.

What was measured:
[1] = Pharmacokinetics and brain tissue distribution after gavage of GTS (UPLC-MS); type: in vivo, Babl/c mice; details: mice; for detection in brain tissues / detection in plasma / exposure in plasma and brain: after oral administration of GTS; for time at which concentration in brain peaked: gavage of GTS infusion (2.75 g crude drug/mL, 2 mL/kg), sampling 0.5, 2, 4, 6, 9 h
Experimental: Animal experiments: Babl/c mice weighing 18–22 g (6–8 weeks old) with equal numbers of males and females, were provided by the Experimental Animal Center of Southern Medical University. The mice were maintained at room temperature (20 ± 2) °C, humidity (60 ± 5)%, 12 h light cycles, and provided an ad libitum diet. Thirty mice were randomly divided into 0.5, 2, 4, 6 and 9 h groups, with 6 mice each. An infusion at concentration of 2.75 g of GTS crude drug/mL was obtained, and the drug was administered by gavage at a dose of 2 mL GTS infusion drug/kg. After 0.5, 2, 4, 6 and 9 h of administration, the plasma and brain tissues in the 0.5, 2, 4, 6 and 9 h groups were collected. The plasma and brain tissue samples were processed in accordance with biological sample processing procedures.
Establishment of UPLC-MS method: An LCMS-8050 liquid chromatography mass spectrometer (Shimadzu, Japan) was operated with a horizon C18 column (100 × 2.1 mm, 3 µm). The mobile phase was 0.1% formic acid in water (A) - acetonitrile (B), and the gradient elution was 0–8 min, 10%–50% B; 8–9 min, 50%–10% B; 9–11 min, 10% B. The column temperature was 30°C, the injection volume was 5 μL, and flow rate was 0.4 mL min^−1. The mass spectrometry conditions included HPLC-MS/MS in […] full-scan and sub-ion scanning modes, an electrospray ionization source (ESI), positive and negative ion mode detection, and nebulizing gas of nitrogen (N2). The zeroed gas flow rate was 3 L min^−1, desolventization temperature was 526°C, and DL temperature was 250°C. Then the parent ion, daughter ion, collision energy, and polarity of the above components were determined (Table 2).

[2] = design: method as in Ru et al., 2014; details: obtained from TCMSP database; ref Ru et al., 2014; cited from earlier work
SH-SY5Y cells = assay: MTT detection of cell viability; type: cell-based, human; details: 48 h
Experimental: (§1) SH-SY5Y cells were inoculated into a 96-well plate. […] After 48 h of incubation at 6 wells per concentration, MTT was added for 4 h. Then incubation was stopped, the liquid was discarded, and dimethyl sulfoxide was added. After horizontal shakening for 5 min, the absorbance at 490 nm was measured using an enzyme-linked immunosorbent assay (Elisa) reader ([Yang et al., 2018]).

[3] = MTT detection of cell viability; type: cell-based, human; details: human, SH-SY5Y cells, 200 μmol ·L^−1, 48 h
Experimental: as §1
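For BBB (blood–brain–barrier) in this document: unitless TCMSP predicted score with screening cut-off BBB at least 0.3.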

Row | Compound | BBB (blood–brain–barrier) [2] | OB% (oral bioavailability) [2] [%] | further results
1 | O=C1C[C@@H](c2ccc(O[C@@H]3O[C@H](CO)[C@@H](O)[C@H](O)[C@H]3O)cc2)Oc2cc(O)ccc21 [Liquiritin] | 0.61 | 58.81 | detection in brain tissues [1]: undetectable; detection in plasma [1]: detectable in plasma and at high levels
2 | CC[C@H]1CN2CC[C@]3(C(=O)Nc4ccccc43)[C@@H]2C[C@@H]1/C(=C\OC)C(=O)OC [Rhynchophylline] | 0.38 | 41.82 | exposure in plasma and brain [1]: exposed in the plasma and brain; also recorded: absorbed into the bloodstream and distributed to brain tissues; time at which concentration in brain peaked [1]: 6 h
3 | COc1ccc([C@@H]2CC(=O)c3c(O)cc(O[C@@H]4O[C@H](CO[C@@H]5O[C@@H](C)[C@H](O)[C@@H](O)[C@H]5O)[C@@H](O)[C@H](O)[C@H]4O)cc3O2)cc1O [Hesperidin] | 0.82 | 32.75 | exposure in plasma and brain [1]: exposed in the plasma and brain; also recorded: absorbed into the bloodstream and distributed to brain tissues; time at which concentration in brain peaked [1]: 4 h
4 | CC1(C)C=Cc2c(ccc([C@@H]3COc4cc(O)ccc4C3)c2O)O1 [Phaseolinisoflavan] | 0.46 | 32.01 | 
5 | CCCCC/C=C\C/C=C\C/C=C\C/C=C\CCCC(=O)O [Arachidonate] | 0.58 | 45.57 | 
6 | CC1(C)C=Cc2c(ccc3c2OC[C@@H](c2ccc(O)cc2O)C3)O1 [Glabridin] | 0.36 | 53.25 | 
7 | C=C[C@H]1CN2CCc3c([nH]c4ccccc34)[C@H]2C[C@@H]1/C(=C\OC)C(=O)OC [delta (sup 18)-Hirsutine] | 0.76 | 41.64 | 
8 | COc1c(O)ccc(C2COc3c(ccc4c3C=CC(C)(C)O4)C2)c1O (stereo not drawn) [3′-methoxyglabridin] | 0.47 | 46.16 | 
9 | CC(C)=CCOc1c2ccoc2cc2oc(=O)ccc12 [Isoimperatorin] | 0.66 | 45.46 | 
10 | COc1cc(CNC(=O)CCCCCCC(C)C)ccc1O [Dihydrocapsaicin] | 0.47 | 47.07 | 
11 | CCCCCCC=CCC=CCCCCCCCCC(=O)O [10,13-eicosadienoic acid] | 0.82 | 39.99 | 
12 | C=C(C(=O)OC1CC2NC(C1)C1OC21)c1ccccc1 (stereo not drawn) [Aponorhyoscine] | 0.40 | 66.65 | 
13 | CCCCCCCCOC(=O)c1ccccc1C(=O)OCCCC [Butyl octyl phthalate] | 0.60 | 43.74 | 
14 | CC[C@H]1CN2CC[C@@]3(C(=O)Nc4ccccc43)[C@@H]2C[C@@H]1/C(=C\OC)C(=O)OC [Isorhyncophylline] | 0.33 | 47.31 | 
15 | CC[C@H](CC[C@@H](C)[C@H]1CC[C@H]2[C@@H]3CC=C4C[C@@H](O)CC[C@]4(C)[C@H]3CC[C@]12C)C(C)C [Sitosterol] | 0.87 |  | 
16 | COc1c2ccoc2c(OCC=C(C)C)c2oc(=O)ccc12 [Phellopterin] | 0.48 | 40.19 | 
17 | CC(C)[C@@H](C)/C=C/[C@@H](C)[C@H]1CC[C@@H]2[C@]1(C)CC[C@H]1[C@]23C=C[C@]2(C[C@@H](O)CC[C@]12C)OO3 [Ergosterol peroxide] | 0.34 | 40.36 | 
18 | O=C(/C=C/c1ccc(O)c(O)c1)O[C@@H]1C[C@](O)(C(=O)O)C[C@@H](O)[C@H]1O [Chlorogenic acid] | 0.94 | 30.70 | exposure in plasma and brain [1]: exposed in the plasma and brain; also recorded: absorbed into the bloodstream and distributed to brain tissues
19 | CC1(C)[C@@H](O[C@H]2O[C@H](C(=O)O)[C@@H](O)[C@H](O)[C@H]2O[C@@H]2O[C@H](C(=O)O)[C@@H](O)[C@H](O)[C@H]2O)CC[C@]2(C)[C@H]3C(=O)C=C4[C@@H]5C[C@@](C)(C(=O)O)CC[C@]5(C)CC[C@@]4(C)[C@]3(C)CC[C@@H]12 [Glycyrrhizic acid] | 0.80 | 30.70 | detection in brain tissues [1]: undetectable; detection in plasma [1]: detectable in plasma and at high levels
20 | CC(C)=CCC[C@@H](C)[C@H]1CC[C@@]2(C)[C@@H]3CC[C@H]4C(C)(C)[C@@H](O)CC[C@@]45C[C@@]35CC[C@]12C [Cycloartenol] | 1.33 |  | 
21 | CCC(CC[C@@H](C)[C@H]1CC[C@H]2[C@@H]3CCC4=CC(=O)CC[C@]4(C)[C@H]3CC[C@]12C)C(C)C (stereo partly drawn) [24-ethylcholest-4-en-3-one] | 1.22 | 36.08 | 
22 | COc1c2ccoc2c(OCC=C(C)C)c2oc(=O)ccc12 [Phelloptorin] | 0.43 | 43.39 | 
23 | CC1(C)C=Cc2c(ccc3c2OC[C@H]2c4ccc(O)cc4O[C@@H]32)O1 [Shinpterocarpin] | 0.68 | 80.30 | 
24 | CC1(C)C=Cc2cc([C@@H]3CC(=O)c4ccc5c(c4O3)C=CC(C)(C)O5)ccc2O1 [Xambioona] | 0.52 | 54.85 | 
25 | CN[C@@H](C)Cc1ccccc1 [MA, Methamphetamine hydrochloride] |  |  | maximum safe dose (SH-SY5Y cells): 100 µmol/L; viability at 48 h, 200 μmol·L^−1 [3]: < 90%
26 | CCCCC[C@H](O)CC(=O)CCc1ccc(O)c(OC)c1 [6-Gingerol] | 1.22 | 61.22 | 
27 | COc1c2c(cc3oc(C)cc(=O)c13)OC(C(C)(C)O[C@@H]1O[C@H](CO)[C@@H](O)[C@H](O)[C@H]1O)C2 (stereo partly drawn) [5-O-Methylviscumaboloside] | 0.56 | 32.47 | exposure in plasma and brain [1]: exposed in the plasma and brain; time at which concentration in brain peaked [1]: 6 h
28 | CC(C)=CCc1c(O)cc(O)c2c1O[C@H](c1ccccc1)CC2=O [Glabranin] | 0.31 | 52.90 | 
29 | CC1(C)CC[C@]2(C(=O)O)CC[C@]3(C)C(=CC[C@@H]4[C@@]5(C)CC[C@H](O)[C@@](C)(CO)[C@@H]5CC[C@]43C)[C@@H]2C1 [Hederagenin] | 0.96 |  | 
